From PubChem BioAssay (NCI)
Values joined by “and” are separate entries in the source; they are usually repeats but may differ in a detail not shown here. Identical values can stand only once.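 Assay format: 96-well plates, 48-hour exposure. GI50 marks 50% less growth. TGI: concentration producing complete growth inhibition.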

Assays:
Assay in all cases: NCI tumour cell line growth inhibition, 48 h
[1] = test system: K-562 leukemia
[2] = test system: MDA-MB-231 breast
[3] = test system: SW-620 colon
[4] = test system: SK-MEL-5 melanoma
[5] = test system: HS 578T breast
[6] = test system: SK-MEL-28 melanoma
[7] = test system: NCI-H522 lung
[8] = test system: TK-10 renal
[9] = test system: NCI-H23 lung
[10] = test system: OVCAR-5 ovarian

For `CCc1nc2ccc(N=Nc3c(O)ccc4ccccc34)cc2[nH]1`, the TGI [1] was > 66.1 µM, the TGI [2] was 49.5 µM and the TGI [3] was 54.4 µM. The TGI [4] was 40 µM, the TGI [5] was 48.6 µM and the TGI [6] was 41.5 µM. For the same compound, the TGI [7] was 50.3 µM, the TGI [8] was 32.6 µM and the TGI [9] was 49.2 µM. For the same compound, the TGI [10] was 34.9 µM.

For `Nc1nc(/C=C\c2ccccc2)nc(N2CCN(c3ccccc3)CC2)n1`, the GI50 [1] was 20.5 µM, the TGI [1] was 65.1 µM and the GI50 [2] was 19.2 µM. For the same compound, the TGI [2] was 53.4 µM, the GI50 [3] was 36.3 µM and the TGI [3] was > 100 µM. It also gave a GI50 [4] of 21.1 µM, a TGI [4] of 45 µM and a GI50 [5] of 61.8 µM. For the same compound, the TGI [5] was > 100 µM, the GI50 [6] was 30.9 µM and the TGI [6] was 79.6 µM. The GI50 [7] was 28.2 µM, the TGI [7] was 84.9 µM and the GI50 [8] was 28.4 µM. The TGI [8] was 81.1 µM, the GI50 [10] was 58.7 µM and the TGI [10] was > 100 µM.

In the case of `Cc1cc(-c2cc(O)ccc2Cl)cc2nnc(Nc3ccc(OCCN4CCCC4)cc3)nc12`, the GI50 [1] is reported as 0.0443 µM, the TGI [1] is reported as 0.245 µM and the GI50 [2] is reported as 0.299 µM. For the same compound, the TGI [2] was 0.967 µM, the GI50 [3] was 0.205 µM and the TGI [3] was 0.399 µM. For the same compound, the GI50 [4] was 1.75 µM, the TGI [4] was 3.37 µM and the GI50 [5] was 1.54 µM. The TGI [5] was 3.83 µM, the GI50 [6] was 0.292 µM and the TGI [6] was 0.843 µM. The GI50 [7] was 0.71 µM, the TGI [7] was 2.58 µM and the GI50 [8] was 1.39 µM. For the same compound, the TGI [8] was 3 µM, the GI50 [9] was 0.812 µM and the TGI [9] was 2.48 µM. For the same compound, the GI50 [10] was 1.65 µM and the TGI [10] was 3.14 µM.

In the case of `NS(=O)(=O)c1cc(C(=O)O)c(O)c2ccccc12`, the TGI [1] is reported as > 100 µM, the TGI [2] is reported as > 100 µM and the TGI [3] is reported as > 100 µM. The TGI [4] was > 100 µM, the TGI [5] was > 100 µM and the TGI [6] was > 100 µM. For the same compound, the TGI [7] was > 100 µM, the TGI [8] was > 100 µM and the TGI [9] was > 100 µM. For the same compound, the TGI [10] was > 100 µM.

In the case of `CC(=O)NNc1nc(C)c(C(/C=C/c2ccccc2O)=N/N=C(N)N)s1`, the TGI [1] is reported as > 100 µM, the TGI [2] is reported as > 100 µM and the TGI [3] is reported as > 100 µM. For the same compound, the TGI [4] was > 100 µM, the TGI [5] was > 100 µM and the TGI [6] was > 100 µM. For the same compound, the TGI [7] was > 100 µM, the TGI [8] was > 100 µM and the TGI [9] was > 100 µM. The TGI [10] was > 100 µM.

With `C=CCC(N[C@H](CO)c1ccccc1)c1cn(Cc2ccccc2Cl)c(=O)n(Cc2ccccc2Cl)c1=O` (some centres undefined) the GI50 [1] was 6.78 µM, the TGI [1] was 40.7 µM and the GI50 [2] was 3.74 µM. The TGI [2] was 21.5 µM, the GI50 [3] was 24.3 µM and the TGI [3] was > 100 µM. For the same compound, the GI50 [4] was 14.6 µM, the TGI [4] was 30.1 µM and the GI50 [5] was 26 µM. For the same compound, the TGI [5] was > 100 µM, the GI50 [6] was 19.7 µM and the TGI [6] was 39.5 µM. It also gave a GI50 [7] of 14.3 µM, a TGI [7] of 89.9 µM and a GI50 [8] of 46.6 µM. The TGI [8] was > 100 µM, the GI50 [9] was 19.5 µM and the TGI [9] was 62.1 µM. The GI50 [10] was 25.6 µM and the TGI [10] was > 100 µM.

In the case of `CC(C)COc1nc2c(c(=O)n(C)c(=O)n2C)n1C`, the GI50 [1] is reported as > 100 µM, the TGI [1] is reported as > 100 µM and the GI50 [2] is reported as > 100 µM. The TGI [2] was > 100 µM, the GI50 [3] was > 100 µM and the TGI [3] was > 100 µM. For the same compound, the GI50 [4] was > 100 µM, the TGI [4] was > 100 µM and the GI50 [5] was 64.1 µM. For the same compound, the TGI [5] was > 100 µM, the GI50 [6] was > 100 µM and the TGI [6] was > 100 µM. For the same compound, the GI50 [9] was > 100 µM, the TGI [9] was > 100 µM and the GI50 [10] was > 100 µM. The TGI [10] was > 100 µM.

In the case of `O=C1/C(=C/c2ccc(Cl)cc2)CNC/C1=C\c1ccc(Cl)cc1`, the GI50 [1] is reported as 0.551 µM and 1.37 µM, the TGI [1] is reported as 17.3 µM and > 100 µM and the TGI [2] is reported as > 100 µM. For the same compound, the GI50 [3] was 0.381 µM, the TGI [4] was 22.1 µM and 11.3 µM and the TGI [5] was > 41.7 µM. For the same compound, the GI50 [6] was 1.3 µM, the TGI [6] was 3.74 µM and 2.96 µM and the TGI [7] was 4.4 µM and 4.75 µM. The TGI [8] was 25.9 µM and 12.3 µM, the TGI [9] was 4.17 µM and 4.24 µM and the TGI [10] was 13.4 µM.

In the case of `CC1(C)CCCC(C)(C2CCC3(C)C2C(O)CC2C4(C)CCC(O)C(C)(C)C4CCC23C)O1` (centres undefined), the TGI [1] is reported as > 100 µM, the TGI [2] is reported as > 100 µM and the TGI [3] is reported as > 100 µM. For the same compound, the TGI [4] was > 100 µM, the TGI [5] was 89.1 µM and the TGI [6] was > 100 µM. For the same compound, the TGI [7] was > 100 µM, the TGI [8] was > 100 µM and the TGI [9] was > 100 µM. For the same compound, the TGI [10] was > 100 µM.

`COC(=O)c1oc2c(C(=O)/C=C/c3ccc(OC)cc3)c(OCCN(C)C)ccc2c1C` gave a GI50 [1] of 2.24 µM, a TGI [1] of 8.49 µM and a GI50 [2] of 8.33 µM. For the same compound, the TGI [2] was 22.9 µM, the GI50 [3] was 2.4 µM and the TGI [3] was 7.43 µM. The GI50 [4] was 10.6 µM, the TGI [4] was 22.4 µM and the GI50 [5] was 6.27 µM. For the same compound, the TGI [5] was 22.4 µM, the GI50 [6] was 7.73 µM and the TGI [6] was 20.9 µM. For the same compound, the GI50 [7] was 5.39 µM, the TGI [7] was 20.2 µM and the GI50 [8] was 9.79 µM. For the same compound, the TGI [8] was 23 µM, the GI50 [9] was 9.76 µM and the TGI [9] was 26.1 µM. It also gave a GI50 [10] of 15.8 µM and a TGI [10] of 32.9 µM.

`CCCCCC/C=C\CCCCCCCCCC1=C(CN2CCN(C)CC2)C(=O)C=C(OC)C1=O` gave a TGI [1] of 6.32 µM, a TGI [2] of 25.9 µM and a TGI [3] of 3.38 µM. It also gave a TGI [4] of 19.3 µM, a TGI [5] of 24.5 µM and a TGI [6] of 28.2 µM. For the same compound, the TGI [7] was 3.01 µM, the TGI [8] was 9.4 µM and the TGI [9] was 15.4 µM. It also gave a TGI [10] of 28.8 µM.

For `Clc1ccccc1-c1nnc2c(Cc3ccccc3)nc3ccccc3n12`, the GI50 [1] was 5.55 µM, the TGI [1] was > 100 µM and the GI50 [2] was 7.09 µM. For the same compound, the TGI [2] was > 100 µM, the GI50 [3] was 20.7 µM and the TGI [3] was > 100 µM. For the same compound, the GI50 [4] was 3.67 µM, the TGI [4] was > 100 µM and the GI50 [5] was 9.04 µM. The TGI [5] was > 100 µM, the GI50 [6] was > 48.8 µM and the TGI [6] was > 100 µM. The GI50 [7] was 29.1 µM, the TGI [7] was > 100 µM and the GI50 [8] was 54 µM. The TGI [8] was > 100 µM, the GI50 [9] was > 100 µM and the TGI [9] was > 100 µM. For the same compound, the GI50 [10] was > 100 µM and the TGI [10] was > 100 µM.

Work on `CC(=O)C1=C(O)C=C2Oc3c(C(=O)/C=C/c4cc(Cl)cc(Cl)c4)c(O)c(C)c(O)c3[C@]2(C)C1=O` yielded a GI50 [1] of 0.497 µM, a TGI [1] of 15 µM and a GI50 [2] of 0.541 µM. The TGI [2] was 1.85 µM, the GI50 [3] was 0.527 µM and the TGI [3] was 2.21 µM. For the same compound, the GI50 [4] was 0.424 µM, the TGI [4] was 1.05 µM and the GI50 [5] was 0.641 µM. For the same compound, the TGI [5] was 3.89 µM, the GI50 [6] was 0.637 µM and the TGI [6] was 2.76 µM. For the same compound, the GI50 [7] was 0.334 µM, the TGI [7] was 0.919 µM and the GI50 [8] was 0.446 µM. The TGI [8] was 1.68 µM, the GI50 [9] was 0.5 µM and the TGI [9] was 2.05 µM. For the same compound, the GI50 [10] was 0.72 µM and the TGI [10] was 8.57 µM.

In the case of `CCN(CC)CCCC(C)N/C(=C1\C(=O)NC(=O)\C1=C(/NC(C)CCCN(CC)CC)c1cccc(OC)c1)c1cccc(OC)c1` (centres undefined), the GI50 [1] is reported as 0.581 µM, the TGI [1] is reported as 3.86 µM and the GI50 [2] is reported as 0.574 µM. The TGI [2] was 1.47 µM, the GI50 [3] was 0.512 µM and the TGI [3] was 3.65 µM. It also gave a GI50 [4] of 0.836 µM, a TGI [4] of 1.54 µM and a GI50 [5] of 1.11 µM. For the same compound, the TGI [5] was 3.22 µM, the GI50 [6] was 0.913 µM and the TGI [6] was 1.67 µM. The GI50 [7] was 0.755 µM, the TGI [7] was 1.69 µM and the GI50 [9] was 1.19 µM. For the same compound, the TGI [9] was 3.15 µM, the GI50 [10] was 1.16 µM and the TGI [10] was 3.42 µM.

In the case of `Oc1c(Cl)cc(Cl)c2ccc(Cn3cc(-c4ccc(C(F)(F)F)cc4)nn3)nc12`, the GI50 [1] is reported as 0.479 µM, the TGI [1] is reported as > 100 µM and the GI50 [2] is reported as 2.19 µM. It also gave a TGI [2] of 6.81 µM, a GI50 [3] of 0.493 µM and a TGI [3] of 1.83 µM. For the same compound, the GI50 [4] was 3.07 µM, the TGI [4] was 11.4 µM and the GI50 [5] was 2.38 µM. It also gave a TGI [5] of 8.44 µM, a GI50 [6] of 1.78 µM and a TGI [6] of 3.76 µM. It also gave a GI50 [7] of 1.42 µM, a TGI [7] of 3.79 µM and a GI50 [8] of 1.95 µM. For the same compound, the TGI [8] was 4.22 µM, the GI50 [9] was 2.04 µM and the TGI [9] was 4.76 µM. The GI50 [10] was 2.27 µM and the TGI [10] was 7.59 µM.
